Results as given in publication PMC12377202, “Design, synthesis, and cytotoxic evaluation of quinazoline-based derivatives as VEGER-2 inhibitors: comparative study against EGFR kinase activity, induction of apoptosis, and molecular docking study” (RSC Advances, 2025).
Values joined by “and” are separate entries in the source; they are usually repeats but may differ in a detail not shown here. Identical values can stand only once.

What was measured:
HepG-2 = assay: MTT anti-proliferative assay, HepG-2; format: cell-based, human; details: Homo sapiens, HepG2
caspase-9 = assay: Caspase-9 expression level in HepG-2 cells; format: cell-based, human; details: for Caspase-9 ± SE: HepG-2, at IC50 concentrations, control 11.01
Method: (§1) All synthesized compounds were tested at their cytotoxic concentrations in HepG-2 cells for analysis of gene expression levels of apoptotic markers caspase-3, caspase-9, TNF-α, and IL-6 proteins, and only two active compounds were tested for BAX and Bcl-2 proteins.
(§2) through Flow cytometric analysis.
(§3) Pellets were collected again and incubated with
(§4) Total RNA from vehicle-treated
(§5) (Thermo Scientific, USA).
(§6) All experiments were performed in […]

HepG-2 cells = assay: Cell cycle analysis (PI staining, flow cytometry); format: cell-based, human
Method: In order to cause cytotoxicity, anticancer medicines must stop cell division at specific checkpoints, which are discrete stages of the cell cycle.
Propidium iodide (PI) staining and flow cytometry analysis[74,75] were used to analyze the cell cycle for derivatives 8a and 9a, as illustrated in the SI.
as §2, §3, §4, §5, §6

K-562 = assay: MTT anti-proliferative assay, K-562; format: cell-based, human; details: Homo sapiens, K562
caspase-3 = assay: Caspase-3 expression level in HepG-2 cells; format: cell-based, human; details: for Caspase-3 ± SE: HepG-2, at IC50 concentrations, control 0.460
Method: as §1, §2, §3, §4, §5, §6

Bcl-2 = Bcl-2 gene expression in HepG-2 cells; format: cell-based, human
Method: as §1, §2, §3, §4, §5, §6

BAX/Bcl-2 = BAX/Bcl-2 ratio in HepG-2 cells; format: cell-based, human; details: control 0.1260
Method: as §1, §2, §3, §4, §5, §6

EGFR = EGFR (Homo sapiens, UniProt P00533); assay: EGFR kinase inhibition assay (ELISA kit)
Chain of EGFR (P00533 25-1210): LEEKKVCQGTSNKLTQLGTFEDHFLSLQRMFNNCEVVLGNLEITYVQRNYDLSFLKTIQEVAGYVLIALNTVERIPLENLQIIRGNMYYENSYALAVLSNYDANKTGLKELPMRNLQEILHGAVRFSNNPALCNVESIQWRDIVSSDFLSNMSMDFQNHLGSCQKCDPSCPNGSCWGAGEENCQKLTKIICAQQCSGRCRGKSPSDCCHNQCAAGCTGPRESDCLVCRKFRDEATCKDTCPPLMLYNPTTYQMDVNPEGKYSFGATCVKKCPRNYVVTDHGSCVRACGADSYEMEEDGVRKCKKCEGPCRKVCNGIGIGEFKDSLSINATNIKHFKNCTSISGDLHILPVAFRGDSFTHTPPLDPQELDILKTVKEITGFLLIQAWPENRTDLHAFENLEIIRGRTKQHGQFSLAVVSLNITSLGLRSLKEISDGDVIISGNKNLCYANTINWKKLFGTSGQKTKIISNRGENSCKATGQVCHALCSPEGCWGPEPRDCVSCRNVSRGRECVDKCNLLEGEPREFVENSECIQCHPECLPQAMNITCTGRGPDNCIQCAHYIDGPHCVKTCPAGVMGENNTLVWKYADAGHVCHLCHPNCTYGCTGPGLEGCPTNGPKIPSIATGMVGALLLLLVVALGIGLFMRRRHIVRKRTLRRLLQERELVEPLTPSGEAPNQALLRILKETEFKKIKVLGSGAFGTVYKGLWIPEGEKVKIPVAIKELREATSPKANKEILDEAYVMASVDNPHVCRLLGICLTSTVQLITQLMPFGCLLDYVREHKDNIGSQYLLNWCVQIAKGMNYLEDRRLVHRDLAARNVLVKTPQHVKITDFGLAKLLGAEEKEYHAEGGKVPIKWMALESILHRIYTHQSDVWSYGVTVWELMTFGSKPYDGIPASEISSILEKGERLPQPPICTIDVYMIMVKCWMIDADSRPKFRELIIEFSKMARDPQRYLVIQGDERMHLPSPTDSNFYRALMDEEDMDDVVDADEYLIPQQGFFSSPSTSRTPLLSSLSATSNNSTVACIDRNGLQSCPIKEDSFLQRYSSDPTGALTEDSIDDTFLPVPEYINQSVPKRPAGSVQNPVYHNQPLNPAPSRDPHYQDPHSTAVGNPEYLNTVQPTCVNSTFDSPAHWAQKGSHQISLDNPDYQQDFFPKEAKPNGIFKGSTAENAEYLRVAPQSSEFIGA

VEGFR-2 = VEGFR-2 (Homo sapiens, UniProt P35968); assay: In vitro VEGFR-2 inhibitory assay (ELISA kit); details: VEGFR-2 kinase
Chain of VEGFR-2 (P35968 20-1356): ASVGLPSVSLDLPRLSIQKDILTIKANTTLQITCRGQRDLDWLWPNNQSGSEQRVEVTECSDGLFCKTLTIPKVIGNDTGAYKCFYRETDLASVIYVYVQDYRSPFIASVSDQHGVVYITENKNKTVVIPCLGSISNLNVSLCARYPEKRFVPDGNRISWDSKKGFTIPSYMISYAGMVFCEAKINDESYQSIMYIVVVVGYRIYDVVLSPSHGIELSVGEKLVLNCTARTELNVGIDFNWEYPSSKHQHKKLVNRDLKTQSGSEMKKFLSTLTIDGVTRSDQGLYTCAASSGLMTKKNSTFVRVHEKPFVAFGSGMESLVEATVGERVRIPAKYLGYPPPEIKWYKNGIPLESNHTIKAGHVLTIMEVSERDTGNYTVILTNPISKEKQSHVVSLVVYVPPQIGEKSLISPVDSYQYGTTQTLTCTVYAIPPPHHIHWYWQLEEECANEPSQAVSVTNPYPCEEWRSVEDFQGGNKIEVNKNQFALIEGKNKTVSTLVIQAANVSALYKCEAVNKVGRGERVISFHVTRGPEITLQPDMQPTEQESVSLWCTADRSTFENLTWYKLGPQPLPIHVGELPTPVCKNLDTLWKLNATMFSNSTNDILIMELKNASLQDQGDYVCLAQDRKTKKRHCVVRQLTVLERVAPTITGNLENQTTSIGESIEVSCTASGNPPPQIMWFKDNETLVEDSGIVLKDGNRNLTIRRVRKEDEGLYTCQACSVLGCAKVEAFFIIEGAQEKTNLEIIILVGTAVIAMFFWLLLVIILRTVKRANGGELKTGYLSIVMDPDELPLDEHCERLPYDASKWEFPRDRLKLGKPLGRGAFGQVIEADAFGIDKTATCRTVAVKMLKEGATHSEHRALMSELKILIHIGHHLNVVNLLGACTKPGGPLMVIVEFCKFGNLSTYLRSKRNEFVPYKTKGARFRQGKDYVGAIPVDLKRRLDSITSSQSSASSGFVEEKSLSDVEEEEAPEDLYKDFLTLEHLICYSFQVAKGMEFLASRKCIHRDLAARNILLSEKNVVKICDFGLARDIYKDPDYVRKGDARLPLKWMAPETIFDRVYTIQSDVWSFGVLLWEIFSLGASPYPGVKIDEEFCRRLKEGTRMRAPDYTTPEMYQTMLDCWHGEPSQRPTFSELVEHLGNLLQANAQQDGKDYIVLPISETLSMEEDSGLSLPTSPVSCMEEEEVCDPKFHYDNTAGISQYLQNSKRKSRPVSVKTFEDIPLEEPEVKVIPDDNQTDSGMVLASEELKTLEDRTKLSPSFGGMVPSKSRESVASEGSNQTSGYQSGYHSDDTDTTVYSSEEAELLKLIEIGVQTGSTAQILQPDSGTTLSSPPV

MCF-7 = assay: MTT anti-proliferative assay, MCF-7; format: cell-based, human; details: Homo sapiens, MCF7
IL-6R = IL-6R level in HepG-2 cells; format: cell-based, human
Method: as §1, §2, §3, §4, §5, §6

TNF-alpha = TNF-alpha level in HepG-2 cells; format: cell-based, human; details: control 43.48
Method: as §1, §2, §3, §4, §5, §6

BAX = BAX gene expression in HepG-2 cells; format: cell-based, human
Method: as §1, §2, §3, §4, §5, §6

For O=C(Cn1cnc2cc(Cl)ccc2c1=O)Nc1ccccc1 [8a, 2-(7-Chloro-4-oxoquinazolin-3(4H)-yl)-N-phenylacetamide], the viability at 0.195 µg/mL (HepG-2; HepG-2, 0.195 ug/ml) was 45.9%, the cytotoxicity at 0.195 µg/mL (HepG-2; HepG-2, 0.195 ug/ml, read-out: Toxicity %) was 54.1% and the viability at 0.391 µg/mL (HepG-2; HepG-2, 0.391 ug/ml) was 26.4%. It also gave a cytotoxicity at 0.391 µg/mL (HepG-2; HepG-2, 0.391 ug/ml, read-out: Toxicity %) of 73.6%, a viability at 0.781 µg/mL (HepG-2; HepG-2, 0.781 ug/ml) of 16.7% and a cytotoxicity at 0.781 µg/mL (HepG-2; HepG-2, 0.781 ug/ml, read-out: Toxicity %) of 83.3%. The viability at 1.563 µg/mL (HepG-2; HepG-2, 1.563 ug/ml) was 11.8%, the cytotoxicity at 1.563 µg/mL (HepG-2; HepG-2, 1.563 ug/ml, read-out: Toxicity %) was 88.2% and the viability at 3.125 µg/mL (HepG-2; HepG-2, 3.125 ug/ml) was 8.68%. The cytotoxicity at 3.125 µg/mL (HepG-2; HepG-2, 3.125 ug/ml, read-out: Toxicity %) was 91.3%, the viability at 6.25 µg/mL (HepG-2; HepG-2, 6.25 ug/ml) was 7.88% and the cytotoxicity at 6.25 µg/mL (HepG-2; HepG-2, 6.25 ug/ml, read-out: Toxicity %) was 92.1%. For the same compound, the viability at 12.5 µg/mL (HepG-2; HepG-2, 12.5 ug/ml) was 6.74%, the cytotoxicity at 12.5 µg/mL (HepG-2; HepG-2, 12.5 ug/ml, read-out: Toxicity %) was 93.3% and the viability at 25 µg/mL (HepG-2; HepG-2, 25 ug/ml) was 5.9%. The cytotoxicity at 25 µg/mL (HepG-2; HepG-2, 25 ug/ml, read-out: Toxicity %) was 94.1%, the IC50 (HepG-2; MTT, HepG-2, read-out: Cytotoxicity against cancer cells IC50 HepG-2) was 187.1 ± 1.8 nM and the “Caspase-9 ± SE” value (caspase-9) was 74.01 ± 3.92 ng/L. The “Caspase-9 ± SE” value (caspase-9; listed as R2) was 74.01 ng/L, the “caspase-9 expression level, fold increase” value (caspase-9; HepG-2, vs control cells) was 6.72 fold and the “% Sub-G1” value (HepG-2 cells; HepG-2, cytotoxic concentration, 24 h, control 68.12) was 96.3% and 96.13%. The “% S” value (HepG-2 cells; HepG-2, control 2.23) was 0.52%, the “% G2/M” value (HepG-2 cells; HepG-2, control 6.52) was 0.16% and the “% G1” value (HepG-2 cells; HepG-2, control 23.14) was 3.19%. For the same compound, the viability at 0.195 µmol (K-562; K-562, 0.195 umol) was 46.6%, the cytotoxicity at 0.195 µmol (K-562; K-562, 0.195 umol, read-out: Toxicity %) was 53.4% and the viability at 0.391 µmol (K-562; K-562, 0.391 umol) was 29.3%. The cytotoxicity at 0.391 µmol (K-562; K-562, 0.391 umol, read-out: Toxicity %) was 70.7%, the viability at 0.781 µmol (K-562; K-562, 0.781 umol) was 22% and the cytotoxicity at 0.781 µmol (K-562; K-562, 0.781 umol, read-out: Toxicity %) was 78%. For the same compound, the viability at 1.563 µmol (K-562; K-562, 1.563 umol) was 12.7%, the cytotoxicity at 1.563 µmol (K-562; K-562, 1.563 umol, read-out: Toxicity %) was 87.3% and the viability at 3.125 µmol (K-562; K-562, 3.125 umol) was 8.29%. For the same compound, the cytotoxicity at 3.125 µmol (K-562; K-562, 3.125 umol, read-out: Toxicity %) was 91.7%, the viability at 6.25 µmol (K-562; K-562, 6.25 umol) was 7.18% and the cytotoxicity at 6.25 µmol (K-562; K-562, 6.25 umol, read-out: Toxicity %) was 92.8%. For the same compound, the viability at 12.5 µmol (K-562; K-562, 12.5 umol) was 6.03%, the cytotoxicity at 12.5 µmol (K-562; K-562, 12.5 umol, read-out: Toxicity %) was 94% and the viability at 25 µmol (K-562; K-562, 25 umol) was 5.54%. For the same compound, the cytotoxicity at 25 µmol (K-562; K-562, 25 umol, read-out: Toxicity %) was 94.5%, the IC50 (K-562; MTT, K-562, read-out: Cytotoxicity against cancer cells IC50 K-562) was 188.4 ± 1.7 nM and the “Caspase-3 ± SE” value (caspase-3) was 1.52 ± 0.017 ng/mL. For the same compound, the “Caspase-3 ± SE” value (caspase-3; listed as R2) was 1.52 ng/mL, the “caspase-3 expression level, fold increase” value (caspase-3; HepG-2, vs control cells) was 3.30 fold and the “fold reduction in Bcl-2 expression level” value (Bcl-2; HepG-2, vs control) was 3.75 fold. For the same compound, the “Gene expression (fold change) Bcl-2” value (Bcl-2; HepG-2, control 3.4983) was 0.93 fold change and 0.9352 ± 0.09 fold change, the “Gene expression (fold change) BAX/Bcl-2 ratio” value (BAX/Bcl-2) was 1.77 and 1.7777 ± 0.11 and the Activity % (EGFR; HepG2) was 16.790%. The Inhibition % (EGFR; HepG2) was 83.210%, the Activity % (EGFR; K-562) was 33.902% and the Inhibition % (EGFR; K-562) was 66.098%. It also gave an Activity % (EGFR; MCF7) of 20.242%, an Inhibition % (EGFR; MCF7) of 79.758% and an Activity % (VEGFR-2; HepG2) of 25.136%. The Inhibition % (VEGFR-2; HepG2) was 74.864%, the Activity % (VEGFR-2; K-562) was 37.495% and the Inhibition % (VEGFR-2; K-562) was 62.505%. It also gave an Activity % (VEGFR-2; MCF7) of 32.377%, an Inhibition % (VEGFR-2; MCF7) of 67.623% and a viability at 0.195 µmol (MCF-7; MCF-7, 0.195 umol) of 93.5%. For the same compound, the cytotoxicity at 0.195 µmol (MCF-7; MCF-7, 0.195 umol, read-out: Toxicity %) was 6.51%, the viability at 0.391 µmol (MCF-7; MCF-7, 0.391 umol) was 67% and the cytotoxicity at 0.391 µmol (MCF-7; MCF-7, 0.391 umol, read-out: Toxicity %) was 33%. For the same compound, the viability at 0.781 µmol (MCF-7; MCF-7, 0.781 umol) was 45.2%, the cytotoxicity at 0.781 µmol (MCF-7; MCF-7, 0.781 umol, read-out: Toxicity %) was 54.8% and the viability at 1.563 µmol (MCF-7; MCF-7, 1.563 umol) was 28.5%. It also gave a cytotoxicity at 1.563 µmol (MCF-7; MCF-7, 1.563 umol, read-out: Toxicity %) of 71.5%, a viability at 3.125 µmol (MCF-7; MCF-7, 3.125 umol) of 17.8% and a cytotoxicity at 3.125 µmol (MCF-7; MCF-7, 3.125 umol, read-out: Toxicity %) of 82.2%. The viability at 6.25 µmol (MCF-7; MCF-7, 6.25 umol) was 11.4%, the cytotoxicity at 6.25 µmol (MCF-7; MCF-7, 6.25 umol, read-out: Toxicity %) was 88.6% and the viability at 12.5 µmol (MCF-7; MCF-7, 12.5 umol) was 8.31%. For the same compound, the cytotoxicity at 12.5 µmol (MCF-7; MCF-7, 12.5 umol, read-out: Toxicity %) was 91.7%, the viability at 25 µmol (MCF-7; MCF-7, 25 umol) was 7.26% and the cytotoxicity at 25 µmol (MCF-7; MCF-7, 25 umol, read-out: Toxicity %) was 92.7%. The IC50 (MCF-7; MTT, MCF-7, read-out: Cytotoxicity against cancer cells IC50 MCF-7) was 695.5 ± 5.1 nM, the “IL-6R ± SE” value (IL-6R; HepG-2, at IC50 concentrations, control 44.10) was 19.54 ± 1.62 ng/L and the IL-6R protein level (IL-6R; HepG-2, control 44.10%) was 19.54 ng/L. For the same compound, the “IL-6 ±SE” value (IL-6R; raw data, HepG2, control 44.10) was 26.0 ng/L, the “TNF-alpha ±SE” value (TNF-alpha; HepG-2, at IC50 concentrations) was 14.37 ± 0.45 ng/L and the “TNF-alpha ±SE” value (TNF-alpha; raw data, HepG2) was 23.6 ng/L. The “fold increase in BAX expression level” value (BAX; HepG-2, vs control) was 3.8 fold, the BAX expression level (BAX; HepG-2, control 0.44) was 1.67 fold change and the “Gene expression (fold change) BAX” value (BAX; HepG-2, control 0.4448) was 1.6792 ± 0.74 fold change.
